In brackets after ≈: the same amount, converted by molar mass. Read-outs that look alike come from different tables or passages of the source. Blank lines part the entries; values can stand above or below the compound they belong to.
Key:
[1] = Ion chromatograph and total nitrogen analysis of electrolyzed amikacin sulfate solution; assay type: physicochemical; settings: for Nitrogen Concentration Org-N: T-N minus NO3—N, NO2—N, NH4—N
[2] = High performance liquid chromatograph analysis of electrolyzed amikacin sulfate solution; assay type: physicochemical
[3] = tested on: Escherichia coli (coliform bacillus) NIHJ JC-2; assay: Test of antibacterial activity of amikacin sulfate (MIC, small amount broth dilution); assay type: cell-based
Protocol: (§1) In accordance with the MIC measurement by a small amount broth dilution method which is the standard method of the Japanese Society of Chemotherapy, the antibacterial activity of amikacin sulfate was evaluated. As the culture medium for measuring sensitivity, Cation Supplemented Mueller-Hinton Broth: CSMHB (obtained from EIKEN CHEMICAL CO., LTD.) was employed. This CSMHB was dividedly-poured 90 μl each into a U-shaped bottom 96-well microplate. Samples taken 0, 2, 4 and 6 hours from initiation of electrolysis described in the above 1. were prepared. A diluted solution was prepared in accordance with the standard method for each of these samples. […] The bacilli used in the present example are identical to the two types of bacilli used in Example 1, i.e. Staphylococcus aureus (staphylococcus bacteria) FDA […] and Escherichia coli (coliform bacillus) NIHJ JC-2. A solution including bacillus for inoculation similar to that of Example 1 was prepared. The solution including bacillus was inoculated approximately 0.005 ml each into each well of the plate set forth above within 15 minutes from preparation of the solution including bacillus. In this plate, a medium not containing the agent was poured into 1-2 wells as the control of the growth of the bacillus. Cultivation was conducted for 18 to 24 hours at 35° C. The evaluation method is identical to that employed in Example 1.

[4] = tested on: Staphylococcus aureus (staphylococcus bacteria) FDA 209P; assay: as above; assay type: cell-based
Protocol: as §1

[5] = Gas chromatograph evaluation of decomposition of glutaral by electrolysis; assay type: physicochemical; settings: six hours from initiation of electrolysis
[6] = tested on: Escherichia coli (coliform bacillus) NIHJ JC-2; assay: Sterilizing activity test of glutaral (MIC, small amount broth dilution, 60 minutes contact); assay type: cell-based
Protocol: (§2) The sterilizing activity of glutaral was evaluated based on MIC measurement by a small amount broth dilution method, which is the standard method of the Japanese Society of Chemotherapy. In the present example, the presence of bacillus by the bacterial number of survivals after a solution including bacillus was brought into contact with glutaral for a predetermined period of time (60 minutes) taking into account the fact that sterilization is neutralized when glutaral is mixed with the culture medium. The pharmaceutical stock solution disclosed in the standard method was replaced with the sample of the present example for testing. As the culture medium for measuring sensitivity, Cation Supplemented Mueller-Hinton Broth: CSMHB (obtained from EIKEN CHEMICAL CO., LTD.) was used. This CSMHB was dividedly-poured 90 μl each into a U-shaped bottom 96-well microplate. This is called Plate 1. The samples taken 0, 2, 4 and 6 hours from initiation of electrolysis described in the above 1. were prepared. In accordance with the method of [Example 1] recited in the additional rule of the standard method, a diluted solution of sterilized phosphate buffer (PBS) was produced for each sample. In the present example, the test was carried out at 1⁄2 the scale cited in the standard method. The containing amount of glutaral in the first tube was approximately 1000 μg/ml titer. The PBS dilution was dividedly-poured 0.1 ml each into another U-shaped microplate. This is called plate 2. In the present example, Staphylococcus aureus (staphylococcus bacteria) […] and Escherichia coli (coliform bacillus) NIHJ JC-2 strain were employed as the bacilli for testing sensitivity. The bacillus to be tested on an agar media cultured overnight was suspended to 0.5 Mc Farland (approximately 10^8 CFU/ml) and diluted by ten times (approximately 10^7 CFU/ml) with sterilized physiologic saline as the solution including bacillus for inoculation. The water to be treated and the solution including bacillus were inoculated and mixed 0.01 ml each in each well of Plate 1 within 15 minutes from preparation of the solution including bacillus. In Plate 1, a culture medium not containing the agent was poured into 1-2 wells as the control of growth of bacillus. At an elapse of 60 minutes from the mixing, 10 μl of the solution of plate 2 was each introduced into the same well of Plate 1. Then, cultivation was conducted for 18 to 24 hours at 35° C. The criteria of Positive Growth (+) and Inhibited Growth (-) after cultivation was determined as set forth below. Positive growth (+) was accepted when cloudiness was identified by the naked eye or a precipitate of at least 1 mm in diameter, or when two or more masses of precipitate, even though the diameter thereof is below 1 mm, was identified. Inhibited growth (-) was accepted when cloudiness by the naked eye was not identified, or when only one precipitate with a diameter below 1 mm was identified.

[7] = tested on: Staphylococcus aureus (staphylococcus bacteria) 209P; assay: as above; assay type: cell-based
Protocol: as §2

MOLT-4 cell = assay: Cytotoxicity (CC50) test, WST-8; assay type: cell-based, human
Description: For the measurement of the number of cells, tetrazolium salt WST-8 (Cell Counting Kit-8 available as a kit) was employed as the chromophone. The basic principle of the cytotoxicity (CC50) test is set forth below. WST-8 is reduced by intracellular dehydrogenation enzyme to produce soluble formazan. Since the number of cells and the amount of generated formazan is linearly proportional, the number of cells can be readily measured by directly measuring the absorbancy of formazan at 450 nm. The specific procedure for measurement is set forth below. 180 μl of a culture medium was introduced into each of the wells in the range of rows A-D and columns 3-10 in a 96-well flat microtiter plate for diluting the agent. 240 μl of the sample taken at 0 hours from initiation of electrolysis was added to the well of row A, column 2 in the microtiter plate. 240 μl of the sample taken 2 hours from initiation of electrolysis was added to the well of row B, column 2. 240 μl of the sample taken 4 hours from initiation of electrolysis was added to the well of row C, column 2. 240 μl of the sample taken 6 hours from initiation of electrolysis was added to the well of row D, column 2. To produce respective columns of sample dilutions, samples of 60 μl each was taken from the above-described samples of 240 μl. These samples of 60 μl were sequentially added to the right side well to be sufficiently pipeted. This was conducted up to column 10. Two of U-bottom 96-well microtiter plates for cultivation were prepared, and 200 μl of PBS was applied to all the side-most wells. 100 μl of culture medium was introduced into each of the wells of rows B-G, columns 2-9. 150 μl of culture medium was introduced into the wells of columns 10 and 11. Then, 50 μl of cell suspension solution prepared to 5×10^6 cell/ml was introduced into each of the wells of rows B-G, columns 2-9 and column 11. The wells of column 10 were absent of cells. […] Then, the O.D. was measured at 450 nm and 620 nm using a microplate reader.

[8] = 6 hours from initiation of electrolysis
[9] = 6 hours from initiation of electrolysis, calculated
[10] = electrolysis for 6 hours or more, from formula value

Nitrate nitrogen (NO3—N) share of the total nitrogen (T-N) [1, 8]: approximately 50% | ammonia nitrogen (NH4—N) share of the total nitrogen (T-N) [1, 8]: approximately 50% | Nitrogen Concentration NH4—N ([1]; electrolyzing time 0 hours): 0 mg/L | Nitrogen Concentration NO2—N ([1]; electrolyzing time 0 hours): 0 mg/L | Nitrogen Concentration NO3—N ([1]; electrolyzing time 0 hours): 0.22 mg/L | Nitrogen Concentration T-N ([1]; electrolyzing time 0 hours): 80.1 mg/L | Nitrogen Concentration Org-N ([1]; electrolyzing time 0 hours): 79.88 mg/L | Nitrogen Concentration NH4—N ([1]; electrolyzing time 1 hour): 4.18 mg/L | Nitrogen Concentration NO2—N ([1]; electrolyzing time 1 hour): 0 mg/L | Nitrogen Concentration NO3—N ([1]; electrolyzing time 1 hour): 1 mg/L | Nitrogen Concentration Org-N ([1]; electrolyzing time 1 hour): 25.52 mg/L | Nitrogen Concentration NH4—N ([1]; electrolyzing time 2 hours): 9.06 mg/L | Nitrogen Concentration NO2—N ([1]; electrolyzing time 2 hours): 0 mg/L | Nitrogen Concentration NO3—N ([1]; electrolyzing time 2 hours): 2.39 mg/L | Nitrogen Concentration T-N ([1]; electrolyzing time 2 hours): 29.65 mg/L | Nitrogen Concentration Org-N ([1]; electrolyzing time 2 hours): 18.20 mg/L | Nitrogen Concentration NH4—N ([1]; electrolyzing time 3 hours): 10.93 mg/L | Nitrogen Concentration NO2—N ([1]; electrolyzing time 3 hours): 0 mg/L | Nitrogen Concentration NO3—N ([1]; electrolyzing time 3 hours): 4.21 mg/L | Nitrogen Concentration T-N ([1]; electrolyzing time 3 hours): 32.17 mg/L | Nitrogen Concentration Org-N ([1]; electrolyzing time 3 hours): 17.03 mg/L | Nitrogen Concentration NH4—N ([1]; electrolyzing time 4 hours): 13.43 mg/L | Nitrogen Concentration NO2—N ([1]; electrolyzing time 4 hours): 0 mg/L | Nitrogen Concentration NO3—N ([1]; electrolyzing time 4 hours): 8.6 mg/L | Nitrogen Concentration T-N ([1]; electrolyzing time 4 hours): 32.75 mg/L | Nitrogen Concentration Org-N ([1]; electrolyzing time 4 hours): 10.72 mg/L | Nitrogen Concentration NH4—N ([1]; electrolyzing time 5 hours): 16 mg/L | Nitrogen Concentration NO2—N ([1]; electrolyzing time 5 hours): 0 mg/L | Nitrogen Concentration NO3—N ([1]; electrolyzing time 5 hours): 11.82 mg/L | Nitrogen Concentration T-N ([1]; electrolyzing time 5 hours): 33.04 mg/L | Nitrogen Concentration Org-N ([1]; electrolyzing time 5 hours): 5.22 mg/L | Nitrogen Concentration NH4—N ([1]; electrolyzing time 6 hours): 17.84 mg/L | Nitrogen Concentration NO2—N ([1]; electrolyzing time 6 hours): 0 mg/L | Nitrogen Concentration NO3—N ([1]; electrolyzing time 6 hours): 16.94 mg/L | Nitrogen Concentration T-N ([1]; electrolyzing time 6 hours): 32.27 mg/L | Nitrogen Concentration Org-N ([1]; electrolyzing time 6 hours): -2.51 mg/L | amikacin sulfate decomposed ([2]; 2 hours from initiation of electrolysis): approximately 90% | amikacin sulfate decomposed ([2]; 4 hours and thereafter from initiation of electrolysis): approximately 99% | Concentration of amikacin sulfate ([2]; electrolyzing time 0 hours (taken as 1,000 mg/L)): 1000 µg/mL | Concentration of amikacin sulfate ([2]; electrolyzing time 2 hours, from peak area at retention time 4.2 minutes): 98.579 µg/mL | Concentration of amikacin sulfate ([2]; electrolyzing time 4 hours, from peak area at retention time 4.2 minutes): 15.914 µg/mL | Concentration of amikacin sulfate ([2]; electrolyzing time 6 hours, from peak area at retention time 4.2 minutes): 10.911 µg/mL | minimum inhibitory concentration (MIC) ([3]; 6 hours from initiation of electrolysis, as tested): > 100 mg/L | minimum inhibitory concentration (MIC) ([3]; electrolyzing time 0 hours): 3.125 mg/L | relative value of the MIC (MIC at 0 hours set as 1) ([3]; electrolyzing time 0 hours): 1 | minimum inhibitory concentration (MIC) ([3]; electrolyzing time 2 hours): 12.5 mg/L | relative value of the MIC (MIC at 0 hours set as 1) ([3]; electrolyzing time 2 hours): ¼ | minimum inhibitory concentration (MIC) ([3]; electrolyzing time 4 hours): 50 mg/L | relative value of the MIC (MIC at 0 hours set as 1) ([3]; electrolyzing time 4 hours): 1/16 | minimum inhibitory concentration (MIC), calculated based on formula (4) ([3]; electrolyzing time 6 hours, calculated): 664 mg/L | relative value of the MIC (MIC at 0 hours set as 1) ([3]; electrolyzing time 6 hours, from calculated MIC): 1/212 | minimum inhibitory concentration (MIC) ([4]; electrolyzing time 0 hours): 0.195 mg/L | relative value of the MIC (MIC at 0 hours set as 1) ([4]; electrolyzing time 0 hours): 1 | minimum inhibitory concentration (MIC) ([4]; electrolyzing time 2 hours): 1.56 mg/L | relative value of the MIC (MIC at 0 hours set as 1) ([4]; electrolyzing time 2 hours): ⅛ | minimum inhibitory concentration (MIC) ([4]; electrolyzing time 4 hours): 6.25 mg/L | relative value of the MIC (MIC at 0 hours set as 1) ([4]; electrolyzing time 4 hours): 1/32 | minimum inhibitory concentration (MIC) ([4]; electrolyzing time 6 hours): 100 mg/L | relative value of the MIC (MIC at 0 hours set as 1) ([4]; electrolyzing time 6 hours): 1/512
Structure (SMILES): NCC[C@H](O)C(=O)N[C@@H]1C[C@H](N)[C@@H](O[C@H]2O[C@H](CN)[C@@H](O)[C@H](O)[C@H]2O)[C@H](O)[C@H]1O[C@H]1O[C@H](CO)[C@@H](O)[C@H](N)[C@H]1O.O=S(=O)(O)O.O=S(=O)(O)O [amikacin sulfate, Amikacin sulfate]

GC peak area (RT 3.14 minutes) relative to sample of 0 hours [5]: 1/25
Structure (SMILES): O=CCCCC=O [glutaral]
minimum inhibitor concentration obtained from approximation formula 2 [6, 9]: 4600 mg/L (≈ 45.9 mM) | minimum inhibitor concentration relative to before electrolysis [6, 10]: approximately 1/37 | minimum inhibitor concentration ([6]; electrolyzing time 0 hours): 31.25 mg/L (≈ 0.312 mM) | relative value of the minimum inhibitor concentration (when preceding electrolysis is 1) ([6]; electrolyzing time 0 hours): 1 | minimum inhibitor concentration ([6]; electrolyzing time 2 hours): 125 mg/L (≈ 1.25 mM) | relative value of the minimum inhibitor concentration (when preceding electrolysis is 1) ([6]; electrolyzing time 2 hours): ¼ | minimum inhibitor concentration ([6]; electrolyzing time 4 hours): >1000 mg/L | relative value of the minimum inhibitor concentration (when preceding electrolysis is 1) ([6]; electrolyzing time 4 hours): < 1/32 | minimum inhibitor concentration ([6]; electrolyzing time 6 hours): >1000 mg/L | relative value of the minimum inhibitor concentration (when preceding electrolysis is 1) ([6]; electrolyzing time 6 hours): < 1/32 | minimum inhibitor concentration obtained from approximation formula 1 [7, 9]: 1150 mg/L (≈ 11.5 mM) | minimum inhibitor concentration relative to before electrolysis [7, 10]: approximately 1/18 | minimum inhibitor concentration ([7]; electrolyzing time 0 hours): 62.5 mg/L (≈ 0.624 mM) | relative value of the minimum inhibitor concentration (when preceding electrolysis is 1) ([7]; electrolyzing time 0 hours): 1 | minimum inhibitor concentration ([7]; electrolyzing time 2 hours): 125 mg/L (≈ 1.25 mM) | relative value of the minimum inhibitor concentration (when preceding electrolysis is 1) ([7]; electrolyzing time 2 hours): ½ | minimum inhibitor concentration ([7]; electrolyzing time 4 hours): 500 mg/L (≈ 4.99 mM) | relative value of the minimum inhibitor concentration (when preceding electrolysis is 1) ([7]; electrolyzing time 4 hours): ⅛ | minimum inhibitor concentration ([7]; electrolyzing time 6 hours): >1000 mg/L | relative value of the minimum inhibitor concentration (when preceding electrolysis is 1) ([7]; electrolyzing time 6 hours): < 1/16

Structure (SMILES): OCl [hypochlorous acid]
contribution to cytotoxicity (MOLT-4 cell): almost no contribution to cytotoxicity

Structure (SMILES): O=S([O-])([O-])=S.[Na+].[Na+] [sodium thiosulfate]
contribution to cytotoxicity (MOLT-4 cell; in the electrolyzed samples, Molt-4 cells): almost no contribution to cytotoxicity

Reference: US7361263B2, “Water treatment apparatus and method” (Sanyo Electric Co., Ltd., priority 2002, dated 2008)
